According to article PMC6384781, “Design, Synthesis, Docking Studies and Monoamine Oxidase Inhibition of a Small Library of 1-acetyl- and 1-thiocarbamoyl-3,5-diphenyl-4,5-dihydro-(1H)-pyrazoles” (Molecules, 2019):

Key:
[1] = molecular target: T1, hMAO-A (Homo sapiens, UniProt P21397); experiment: hMAO-A inhibition, Amplex Red fluorometric assay with kynuramine substrate; assay type: biochemical; conditions: for IC50 / IC50 hMAO-A: recombinant hMAO-A, kynuramine 50 µM, mean ± SD of triplicate, max tested 100 µM; for fold difference of hMAO-A inhibition, (R)-enantiomer versus (S)-enantiomer: (R)- compared with (S)-enantiomer of the same compound
T1 construct: purchased Sigma-Aldrich; host or cells: insect cells (microsomes)
T1 sequence (P21397 1-527): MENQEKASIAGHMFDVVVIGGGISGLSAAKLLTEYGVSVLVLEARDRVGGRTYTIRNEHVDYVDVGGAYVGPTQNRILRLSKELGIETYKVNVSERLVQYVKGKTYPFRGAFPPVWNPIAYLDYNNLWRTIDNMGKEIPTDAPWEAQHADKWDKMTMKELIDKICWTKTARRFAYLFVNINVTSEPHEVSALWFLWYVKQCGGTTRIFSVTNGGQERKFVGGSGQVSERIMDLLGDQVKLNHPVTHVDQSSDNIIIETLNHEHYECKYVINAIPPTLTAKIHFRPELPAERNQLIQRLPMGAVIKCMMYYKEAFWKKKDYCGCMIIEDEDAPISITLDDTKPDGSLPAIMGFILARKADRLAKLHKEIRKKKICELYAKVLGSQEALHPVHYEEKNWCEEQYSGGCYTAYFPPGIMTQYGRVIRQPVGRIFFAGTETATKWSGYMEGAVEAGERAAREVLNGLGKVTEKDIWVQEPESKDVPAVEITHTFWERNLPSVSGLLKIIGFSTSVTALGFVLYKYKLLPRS
Experimental: (§1) The synthesized compounds P1–P18 were evaluated as hMAO inhibitors using the recombinant hMAOs as enzyme sources and kynuramine as substrate. A fluorometric method based on the Amplex® Red reagent (λex = 560 nm; λem = 590 nm) was used to measure hMAO activity. In this horseradish peroxidase-linked assay, Amplex® Red reacts with hydrogen peroxide that is produced by the MAO catalytic cycle to yield a fluorescent product, resorufin [28]. By thus recording the MAO-catalyzed formation of hydrogen peroxide in the presence of different concentrations of a test inhibitor, sigmoidal plots of enzyme activity versus the logarithm of inhibitor concentration were constructed from which IC50 values were estimated (GraphPad Prism 5). All IC50 values were measured in triplicate and are expressed as the mean ± standard deviation (SD). The inhibitory activities of compounds P1–P18 are summarized in Table 1 along with selectivity index (SI) values which are the ratio of IC50(hMAO-A)/IC50(hMAO-B). SI < 1 indicates selectivity for MAO-A, whereas SI > 1 indicates selectivity for the MAO-B isoform.
(§2) Microsomes from insect cells expressing recombinant hMAO-A or hMAO-B (5 mg protein/mL) served as enzyme sources, and were pre-aliquoted and stored at −70 °C. All enzymatic reactions were carried out to a final volume of 200 µL in black 96-well microtiter plates (Corning). Potassium phosphate buffer (100 mM, pH 7.4, made isotonic with KCl) served as reaction solvent. The reactions contained kynuramine (50 µM), various concentrations of the test inhibitor (0.003–100 μM), horseradish peroxidase (1 unit/mL) and Amplex® Red (200 µM). Stock solutions of the test inhibitors were prepared in DMSO and added to the reactions to yield a final concentration of 4% (v/v) DMSO. The reactions were initiated with the addition of hMAO-A (0.0075 mg protein/mL) or hMAO-B (0.015 mg protein/mL), and incubated at 37 °C for 20 min in a convection oven. At endpoint, the reactions were terminated with the addition of 10 μL pargyline (20 mM) and 10 μL (R)-deprenyl (5 mM) for hMAO-A and hMAO-B, respectively. The concentrations of resorufin in the reactions were determined by fluorescence spectrophotometry (λex = 560 nm, λem = 590 nm). Resorufin was quantitated with a linear calibration curve, which was constructed from standard solutions containing hydrogen peroxide (0.05–1.6 µM). Each standard was prepared to a final volume of 200 μL in potassium phosphate buffer and also contained horseradish peroxidase (1 unit/mL), Amplex® Red (200 µM), 4% DMSO as co-solvent, 10 μL pargyline (20 mM) for hMAO-A and 10 μL (R)-deprenyl (5 mM) for hMAO-B. The IC50 values were determined by constructing sigmoidal curves of MAO catalytic activity versus the logarithm of inhibitor concentration. For this purpose, the one site competition model incorporated into the Prism 5 software package (GraphPad, San Diego, CA, USA) was used. All experiments were carried out in triplicate and the IC50 values are expressed as mean ± standard deviation (SD).

[2] = molecular target: T2, hMAO-B (Homo sapiens, UniProt P27338); experiment: hMAO-B inhibition, Amplex Red fluorometric assay with kynuramine substrate; assay type: biochemical; conditions: for SI (selectivity index for the hMAO-B isoform): ratio IC50(hMAO-A)/IC50(hMAO-B), SI > 1 = MAO-B selective; for IC50 / IC50 hMAO-B: recombinant hMAO-B, kynuramine 50 µM, mean ± SD of triplicate, max tested 100 µM
T2 construct: purchased Sigma-Aldrich; host or cells: insect cells (microsomes)
T2 sequence (P27338 1-520): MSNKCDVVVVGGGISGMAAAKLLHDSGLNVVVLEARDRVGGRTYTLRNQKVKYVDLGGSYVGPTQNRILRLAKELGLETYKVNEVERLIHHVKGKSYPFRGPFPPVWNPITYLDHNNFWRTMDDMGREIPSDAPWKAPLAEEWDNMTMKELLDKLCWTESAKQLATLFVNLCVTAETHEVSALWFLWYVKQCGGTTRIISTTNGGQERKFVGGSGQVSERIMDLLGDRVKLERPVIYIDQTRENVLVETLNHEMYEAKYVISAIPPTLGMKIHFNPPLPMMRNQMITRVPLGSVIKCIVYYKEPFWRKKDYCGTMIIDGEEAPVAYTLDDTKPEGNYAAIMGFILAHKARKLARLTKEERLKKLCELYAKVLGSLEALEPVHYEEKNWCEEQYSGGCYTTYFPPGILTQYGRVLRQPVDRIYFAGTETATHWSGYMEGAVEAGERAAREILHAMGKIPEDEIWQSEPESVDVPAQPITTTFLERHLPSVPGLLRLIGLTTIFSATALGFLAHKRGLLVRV
Experimental: as §1, §2

Structure (SMILES) | IC50 [1] | SI (selectivity index for the hMAO-B isoform) [2] | IC50 [2] | fold difference of hMAO-A inhibition, (R)-enantiomer versus (S)-enantiomer [1] | fold higher hMAO-B inhibitory activity, (R)-enantiomer versus (S)-enantiomer ([2]; (R)- compared with (S)-enantiomer of the same compound) | IC50 hMAO-A [1] | melting point | fold higher inhibitory activity for hMAO-A than for hMAO-B ([1]; hMAO-A versus hMAO-B) | IC50 hMAO-B [2]
COc1ccc(C2=NN(C(N)=S)[C@@H](c3ccccc3)C2)cc1 [(R)-P1] | 50.6 ± 2.67 µM | <0.51 | > 100 µM | – | – | – | – | – | –
CCOc1ccc(C2=NN(C(N)=S)[C@@H](c3ccccc3)C2)cc1 [(R)-P2] | 33.9 ± 1.29 µM | <0.34 | > 100 µM | – | – | – | – | – | –
CCCOc1ccc(C2=NN(C(N)=S)[C@@H](c3ccccc3)C2)cc1 [(R)-P3] | 8 ± 0.83 µM | 2.89 | 2.77 ± 0.39 µM | – | – | – | – | – | –
CCCCOc1ccc(C2=NN(C(N)=S)[C@@H](c3ccccc3)C2)cc1 [(R)-P4] | 3.63 ± 0.5 µM | 9.55 | 0.38 ± 0.06 µM | 10 fold | – | – | – | – | –
CCCCCOc1ccc(C2=NN(C(N)=S)[C@@H](c3ccccc3)C2)cc1 [(R)-P5] | 3.03 ± 0.6 µM | 6.89 | 0.44 ± 0.028 µM | 18 fold | 6 fold | – | – | – | –
COc1ccc(C2=NN(C(N)=S)[C@H](c3ccccc3)C2)cc1 [(S)-P1] | 46.6 ± 2.62 µM | <0.47 | > 100 µM | – | – | – | – | – | –
CCOc1ccc(C2=NN(C(N)=S)[C@H](c3ccccc3)C2)cc1 [(S)-P2] | 32.3 ± 4.46 µM | <0.32 | > 100 µM | – | – | – | – | – | –
CCCOc1ccc(C2=NN(C(N)=S)[C@H](c3ccccc3)C2)cc1 [(S)-P3] | 9.59 ± 0.83 µM | 0.23 | 42.5 ± 2.61 µM | – | – | – | – | – | –
CCCCOc1ccc(C2=NN(C(N)=S)[C@H](c3ccccc3)C2)cc1 [(S)-P4] | 39.2 ± 2.15 µM | 7.78 | 5.03 ± 0.88 µM | – | – | – | – | – | –
CCCCCOc1ccc(C2=NN(C(N)=S)[C@H](c3ccccc3)C2)cc1 [(S)-P5] | 55.2 ± 2.72 µM | 19.77 | 2.79 ± 0.87 µM | – | – | – | – | – | –
CC(C)=CCCC(C)=CCOc1ccc(C2=NN(C(N)=S)C(c3ccccc3)C2)cc1 (stereo not drawn) [Compound P6, 3-(4-((3,7-dimethylocta-2,6-dien-1-yl)oxy)phenyl)-5-phenyl-4,5-dihydro-1H-pyrazole-1-carbothioamide] | > 100 µM | >1.85 | 54.1 ± 7.54 µM | – | – | ineffective | – | – | –
C=CCOc1ccc(C2=NN(C(C)=O)C(c3ccccc3)C2)cc1 (stereo not drawn) [Compound P7, 1-(3-(4-(allyloxy)phenyl)-5-phenyl-4,5-dihydro-1H-pyrazol-1-yl)ethan-1-one] | 39.3 ± 5.94 µM | 2.72 | 14.5 ± 2.78 µM | – | – | – | 95 to 98 °C | – | –
CC(=O)N1N=C(c2ccc(OCC=C(C)C)cc2)CC1c1ccccc1 (stereo not drawn) [Compound P8] | > 100 µM | >43.67 | 2.29 ± 0.42 µM | – | – | – | – | – | –
CC(=O)N1N=C(c2ccc(OCC=C(C)C)cc2)CC1c1ccccc1C (stereo not drawn) [Compound P9, 1-(3-(4-((3-methylbut-2-en-1-yl)oxy)phenyl)-5-(o-tolyl)-4,5-dihydro-1H-pyrazol-1-yl)ethan-1-one] | 9.13 ± 0.34 µM | 0.33 | 27.3 ± 0.57 µM | – | – | – | 110 to 112 °C | 3 fold | –
CC(=O)N1N=C(c2ccc(OCC=C(C)C)cc2)CC1c1cccc(C)c1 (stereo not drawn) [Compound P10, 1-(3-(4-((3-methylbut-2-en-1-yl)oxy)phenyl)-5-(m-tolyl)-4,5-dihydro-1H-pyrazol-1-yl)ethan-1-one] | 86.8 ± 14.7 µM | 26.96 | 3.22 ± 0.48 µM | – | – | – | 120 to 122 °C | – | –
CC(=O)N1N=C(c2ccc(OCC=C(C)C)cc2)CC1c1ccc(C)cc1 (stereo not drawn) [Compound P11, 1-(3-(4-((3-methylbut-2-en-1-yl)oxy)phenyl)-5-(p-tolyl)-4,5-dihydro-1H-pyrazol-1-yl)ethan-1-one] | > 100 µM | >8.19 | 12.2 ± 0.71 µM | – | – | – | – | – | –
CC(=O)N1N=C(c2ccc(OCC=C(C)C)cc2)CC1c1ccc(C)cc1C (stereo not drawn) [Compound P12, 1-(5-(2,4-dimethylphenyl)-3-(4-((3-methylbut-2-en-1-yl)oxy)phenyl)-4,5-dihydro-1H-pyrazol-1-yl)ethan-1-one] | 80.6 ± 10 µM | <0.81 | > 100 µM | – | – | – | 117 to 119 °C | – | –
CC(=O)N1N=C(c2ccc(OCC=C(C)C)cc2)CC1c1ccccc1Cl (stereo not drawn) [Compound P13, 1-(5-(2-chlorophenyl)-3-(4-((3-methylbut-2-en-1-yl)oxy)phenyl)-4,5-dihydro-1H-pyrazol-1-yl)ethan-1-one] | 5.74 ± 1.66 µM | 1.85 | 3.11 ± 0.66 µM | – | – | – | 131 to 134 °C | – | –
CC(=O)N1N=C(c2ccc(OCC=C(C)C)cc2)CC1c1cccc(Cl)c1 (stereo not drawn) [Compound P14, 1-(5-(3-chlorophenyl)-3-(4-((3-methylbut-2-en-1-yl)oxy)phenyl)-4,5-dihydro-1H-pyrazol-1-yl)ethan-1-one] | 4.13 ± 0.26 µM | 3.82 | 1.08 ± 0.05 µM | – | – | – | 85 to 88 °C | – | –
CC(=O)N1N=C(c2ccc(OCC=C(C)C)cc2)CC1c1ccc(Cl)cc1 (stereo not drawn) [Compound P15, 1-(5-(4-chlorophenyl)-3-(4-((3-methylbut-2-en-1-yl)oxy)phenyl)-4,5-dihydro-1H-pyrazol-1-yl)ethan-1-one] | 12.1 ± 0.14 µM | 1.11 | 11 ± 3.56 µM | – | – | – | – | – | –
CC(=O)N1N=C(c2ccc(OCC=C(C)C)cc2)CC1c1ccc(Cl)cc1Cl (stereo not drawn) [Compound P16, 1-(5-(2,4-dichlorophenyl)-3-(4-((3-methylbut-2-en-1-yl)oxy)phenyl)-4,5-dihydro-1H-pyrazol-1-yl)ethan-1-one] | > 100 µM | – | > 100 µM | – | – | did not inhibit | 128 to 130 °C | – | did not inhibit
CC(=O)N1N=C(c2ccc(OCC=C(C)C)cc2)CC1c1ccc(-c2ccccc2)cc1 (stereo not drawn) [Compound P17] | > 100 µM | – | > 100 µM | – | – | devoid of inhibition activity | 132 to 135 °C | – | devoid of inhibition activity
